# Reference: patent publication US9060971B2, “Combination pharmaceutical agents as inhibitors of HCV replication” (Enanta Pharmaceuticals, Inc., priority 2010, dated 2015)
# How the values were obtained:
# HCV 1b genotype replicon = experiment: HCV replicon drug screening assay (quantitative RT-PCR or luciferase), genotype 1b; type: cell-based; conditions: Hepatitis C virus; HCV 1b genotype replicon; quantitative RT-PCR or luciferase assay; read-out: Genotype-1b replicon EC50 Range
# Summary of the method: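 Huh-derived subgenomic genotype 1b replicon lines (SGR 11-7, neo; Huh-luc/neo-ET, firefly luciferase with adaptive mutations) grown at 37 °C. EC50 from HCV RNA by TaqMan one-step qRT-PCR normalised to GAPDH RNA. Cytotoxicity measured in parallel by MTS.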
# [1] = system: "Huh-luc/neo-ET" HCV replicon; experiment: In vitro synergy assay, two drug combinations, luciferase, Bliss additivity; type: cell-based; conditions: 72 h
# Text: The coding sequence of the published HCV replicon was synthesized and subsequently assembled in a modified plasmid pBR322 (Promega, Madison, Wis.) using standard molecular biology techniques. One replicon cell line (“SGR 11-7”) stably expresses HCV replicon RNA which consists of (i) the HCV 5′UTR fused to the first 12 amino acids of the capsid protein, (ii) the neomycin phosphotransferase gene (neo), (iii) the IRES from encephalomyocarditis virus (EMCV), and (iv) HCV NS2 to NS5B genes and the HCV 3′UTR. Another replicon cell line (“Huh-luc/neo-ET”) described by Vrolijk et. al. (Vrolijk et. al. (2003) Journal of Virological Methods 110:201-209, expressly incorporated by reference in its entirety) stably expresses HCV replicon RNA which consists of (i) the HCV 5′UTR fused to the first 12 amino acids of the capsid protein, (ii) the firefly luciferase reporter gene, (iii) the ubiquitin gene, (iv) the neomycin phosphotransferase gene (neo), (v) the IRES from encephalomyocarditis virus (EMCV), and (vi) HCV NS3 to NS5B genes that harbor cell culture adaptive mutations (E1202G, T12801, K1846T) and the HCV 3′UTR.
# Since clinical drug resistance often develops in viral infections following single agent therapies, there is a need to assess the additive, antagonistic, or synergistic properties of combination therapies. We used the HCV replicon system to assess the potential use of our NS5A inhibitors in combination therapies with Interferon alpha, cyclosporine analogs and inhibitors targeting other HCV proteins. The acute effects of combinations of drugs were studied in the “Huh-luc/neo-ET” replicon with each chemical agent titrated in an X or Y direction in a 6 point two-fold dilution curve centered around the EC50 of each drug. Briefly, replicon cells were seeded at 7,000 cells per well in 90 ul DMEM (without phenol red, Invitrogen Cat. #31053-036) per well with 10% FCS, 1% non-essential amino acids, 1% of Glutamax and 1% of 100× penicillin/streptomycin and incubated overnight at 37° C., 5% C02, 100% relative humidity. 16-20 h after seeding cells, test compounds previously solubilized and titrated in dimethyl sulfoxide (“DMSO”) from each X plate and Y plate were diluted 1:100 in DMEM (without phenol red, Invitrogen Cat. #31053-036) with 10% FCS, 1% non-essential amino acids, 1% of Glutamax and 1% of 100× penicillin/streptomycin and added directly to the 96-well plate containing cells and growth medium at a 1:10 dilution for a final dilution of compound and DMSO of 1:1000 ([…] final concentration). Drug treated cells were incubated at 37° C., 5% C02, 100% relative humidity for 72 hours before performing a luciferase assay using 100 ul per well BriteLite Plus (Perkin Elmer) according to the manufacturer's instructions. Data analysis utilizes the method published by Prichard and Shipman (Antiviral Research, 1990. 14:181-205). Using this method, the combination data were analyzed for antagonistic, additive, or synergistic combination effects across the entire combination surface created by the diluted compounds in combination.
# We used the HCV replicon system to assess the potential use of our NS5A inhibitor in combination therapies with Interferon alpha, cyclosporine analogs or inhibitors targeting other HCV proteins. Several HCV antivirals, including protease inhibitors (ITMN-191, SCH503034, VX-950), a nucleoside analog (such as those described in WO01/90121(A2), U.S. Pat. No. 6,348,587B1, WO01/60315 or WO01/32153), a nonnucleoside NS5B polymerase inhibitor (GSK625433), a cyclosporine analog, as well as Interferon alpha, are tested in combination with Compounds 90, 93 or 95 herein, inhibitors of HCV NS5A. Antivirals were tested at five concentrations each, diluted in DMSO by 2-fold dilutions. The antivirals were tested as monotherapies and in combination with Compounds 90, 93 or 95 (described herein) at various concentration ratios. […]
# [2] = in combination with Boceprevir (SCH503034)
# [3] = in combination with Interferon-alpha
# [4] = in combination with Telaprevir (VX-950)
SMILES,EC50 (HCV 1b genotype replicon),"Bliss Volume (%) at 95% Confidence Intervals, Antagonism [1, 2]","Bliss Volume (%) at 95% Confidence Intervals, Synergy [1, 2]","Result (combination effect) [1, 2]","Synergy Score [1, 2]","Bliss Volume (%) at 95% Confidence Intervals, Antagonism ([1]; in combination with GSK625433)","Bliss Volume (%) at 95% Confidence Intervals, Synergy ([1]; in combination with GSK625433)",Result (combination effect) ([1]; in combination with GSK625433),Synergy Score ([1]; in combination with GSK625433),"Bliss Volume (%) at 95% Confidence Intervals, Antagonism ([1]; in combination with ITMN-191)","Bliss Volume (%) at 95% Confidence Intervals, Synergy ([1]; in combination with ITMN-191)",Result (combination effect) ([1]; in combination with ITMN-191),Synergy Score ([1]; in combination with ITMN-191),"Bliss Volume (%) at 95% Confidence Intervals, Antagonism [1, 3]","Bliss Volume (%) at 95% Confidence Intervals, Synergy [1, 3]","Result (combination effect) [1, 3]","Synergy Score [1, 3]","Bliss Volume (%) at 95% Confidence Intervals, Antagonism ([1]; in combination with R7128)","Bliss Volume (%) at 95% Confidence Intervals, Synergy ([1]; in combination with R7128)",Result (combination effect) ([1]; in combination with R7128),other results
COC(=O)N[C@H](C(=O)N1CCC[C@H]1c1nc(-c2ccc(C#Cc3ccc4[nH]c([C@@H]5CC6(CC6)CN5C(=O)[C@@H](NC(=O)OC)C(C)C)nc4c3)cc2)c[nH]1)C(C)C [Compound 93],< 1 nM,0%,63%,Synergistic,63%,0%,113%,Synergistic,113%,0%,14%,Additive,14%,0%,38%,Synergistic,38%,0%,14%,Additive,"Synergy Score ([1]; in combination with R7128): 14%; Bliss Volume (%) at 95% Confidence Intervals, Antagonism [1, 4]: 0%; Bliss Volume (%) at 95% Confidence Intervals, Synergy [1, 4]: 7%; Result (combination effect) [1, 4]: Additive; Synergy Score [1, 4]: 7%"
COC(=O)N[C@H](C(=O)N1CC2(CC2)C[C@H]1c1nc(-c2ccc(C#Cc3ccc4[nH]c([C@@H]5CC6(CC6)CN5C(=O)[C@@H](NC(=O)OC)C(C)C)nc4c3)cc2)c[nH]1)C(C)C [Compound 95],< 1 nM,0%,44%,Synergistic,44%,0%,0%,Additive,0%,0%,5%,Additive,5%,−2%,0%,Additive,−2%,0%,28%,Synergistic,"Synergy Score ([1]; in combination with R7128): 28%; Bliss Volume (%) at 95% Confidence Intervals, Antagonism [1, 4]: 0%; Bliss Volume (%) at 95% Confidence Intervals, Synergy [1, 4]: 5%; Result (combination effect) [1, 4]: Additive; Synergy Score [1, 4]: 5%"
